SMILES strings stand for the structures.

What all share (experiment): KinomeScan kinase profiling
Common to all, as to assay type: binding

One assay addresses T1, ALK (Homo sapiens, UniProt Q9UM73).
T1 construct: host or cells: E. coli host derived from BL21 (T7 phage lysate)
A digest of the protocol: (§1)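 Kinases were expressed as T7 phage fusions in a BL21-derived E. coli host and the cleared lysates were used. Ligand beads were blocked with biotin and buffer (1% BSA, 0.05% Tween 20, 1 mM DTT). Compounds came from 40× DMSO stocks, and phage in the eluates was titred by qPCR.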

In a further assay the target is T2, AURKB (Homo sapiens, UniProt Q96GD4).
T2 construct: purchased Ambit Biosciences Corp (KinomeScan); host or cells: E. coli host derived from the BL21 strain, T7 phage
T2 sequence (Q96GD4 whole entry): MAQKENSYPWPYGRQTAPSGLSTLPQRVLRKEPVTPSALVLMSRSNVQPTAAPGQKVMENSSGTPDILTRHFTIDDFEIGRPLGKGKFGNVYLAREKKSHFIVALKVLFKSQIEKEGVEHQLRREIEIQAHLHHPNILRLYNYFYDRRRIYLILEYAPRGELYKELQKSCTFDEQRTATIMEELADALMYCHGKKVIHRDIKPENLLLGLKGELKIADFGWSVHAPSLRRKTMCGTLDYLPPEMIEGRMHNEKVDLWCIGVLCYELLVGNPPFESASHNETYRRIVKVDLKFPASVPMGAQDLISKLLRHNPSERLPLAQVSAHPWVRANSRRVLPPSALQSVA
A digest of the protocol: as §1

For another assay, the target named is T3, BMPR2 (Homo sapiens, UniProt Q13873).
T3 construct: purchased Ambit Biosciences Corp (KinomeScan); host or cells: E. coli host derived from the BL21 strain, T7 phage
A digest of the protocol:
as §1

A further assay deals with T4, CAMK1D (Homo sapiens, UniProt Q8IU85).
T4 construct: purchased Ambit Biosciences Corp (KinomeScan); host or cells: E. coli host derived from the BL21 strain, T7 phage
The method in brief:
as §1

A further assay deals with T5, CAMKK1 (Homo sapiens, UniProt Q8N5S9).
T5 construct: host or cells: T7 phage in E. coli (BL21-derived)
The method in brief: as §1

The target of a further assay is T6, CDC2L2 (Homo sapiens, UniProt Q9UQ88).
T6 construct: host or cells: T7 phage in E. coli (BL21-derived)
T6 sequence (Q9UQ88 whole entry): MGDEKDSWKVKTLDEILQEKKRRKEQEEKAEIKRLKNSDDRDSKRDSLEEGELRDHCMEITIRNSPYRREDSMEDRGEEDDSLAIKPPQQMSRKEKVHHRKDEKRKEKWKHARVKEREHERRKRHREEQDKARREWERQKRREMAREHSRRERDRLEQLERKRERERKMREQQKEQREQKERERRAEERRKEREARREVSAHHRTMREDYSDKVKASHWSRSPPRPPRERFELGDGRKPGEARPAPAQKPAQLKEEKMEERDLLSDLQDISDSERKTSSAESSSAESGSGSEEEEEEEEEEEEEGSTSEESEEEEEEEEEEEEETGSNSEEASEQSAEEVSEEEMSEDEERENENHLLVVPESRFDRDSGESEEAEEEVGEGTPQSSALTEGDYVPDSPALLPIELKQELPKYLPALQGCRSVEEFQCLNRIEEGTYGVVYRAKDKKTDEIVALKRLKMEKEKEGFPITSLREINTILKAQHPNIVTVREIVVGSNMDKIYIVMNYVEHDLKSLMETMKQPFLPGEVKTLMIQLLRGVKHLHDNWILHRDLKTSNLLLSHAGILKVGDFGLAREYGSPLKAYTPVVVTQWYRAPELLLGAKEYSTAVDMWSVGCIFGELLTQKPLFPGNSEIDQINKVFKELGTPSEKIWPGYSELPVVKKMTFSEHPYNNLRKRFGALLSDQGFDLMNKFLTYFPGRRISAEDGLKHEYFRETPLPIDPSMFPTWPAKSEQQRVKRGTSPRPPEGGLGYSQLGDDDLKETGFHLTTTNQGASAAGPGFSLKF
A digest of the protocol:
as §1

The next assay has as its target T7, CLK3 (Homo sapiens, UniProt P49761).
T7 construct: host or cells: T7 phage in E. coli (BL21-derived)
The method in brief:
as §1

Another assay concerns the target T8, CSF1R (Homo sapiens, UniProt P07333).
T8 construct: host or cells: T7 phage in E. coli (BL21-derived)
The method in brief:
as §1

The target in the next assay is T9, CSNK1E (Homo sapiens, UniProt P49674).
T9 construct: host or cells: T7 phage in E. coli (BL21-derived)
The method in brief:
as §1

The next assay deals with T10, EGFR (S752-1759del) (Homo sapiens, UniProt P00533, DEL752-759).
T10 construct: host or cells: E. coli host derived from BL21, T7 phage lysate
The method in brief:
as §1

Another assay deals with T11, ERBB4 (Homo sapiens, UniProt Q15303).
T11 construct: host or cells: E. coli host derived from BL21, T7 phage lysate
A digest of the protocol: as §1

In assay [1] the target is T12, JAK2 (JH1domain-catalytic) (Homo sapiens, UniProt O60674).
T12 construct: JAK2 (JH1domain-catalytic); host or cells: T7 phage in E. coli host derived from BL21
T12 sequence (O60674 849-1124 limits assumed): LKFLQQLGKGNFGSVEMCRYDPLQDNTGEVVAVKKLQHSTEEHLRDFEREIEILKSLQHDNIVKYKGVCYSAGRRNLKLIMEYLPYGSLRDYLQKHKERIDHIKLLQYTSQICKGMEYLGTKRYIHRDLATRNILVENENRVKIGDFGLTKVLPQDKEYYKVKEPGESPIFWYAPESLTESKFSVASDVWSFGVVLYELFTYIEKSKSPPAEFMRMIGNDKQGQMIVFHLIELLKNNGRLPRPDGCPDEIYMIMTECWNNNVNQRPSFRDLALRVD
The method in brief:
as §1

The target in a further assay is T13, JNK3 (Homo sapiens, UniProt P53779).
T13 construct: host or cells: T7 phage in E. coli host derived from BL21
T13 sequence (P53779 whole entry): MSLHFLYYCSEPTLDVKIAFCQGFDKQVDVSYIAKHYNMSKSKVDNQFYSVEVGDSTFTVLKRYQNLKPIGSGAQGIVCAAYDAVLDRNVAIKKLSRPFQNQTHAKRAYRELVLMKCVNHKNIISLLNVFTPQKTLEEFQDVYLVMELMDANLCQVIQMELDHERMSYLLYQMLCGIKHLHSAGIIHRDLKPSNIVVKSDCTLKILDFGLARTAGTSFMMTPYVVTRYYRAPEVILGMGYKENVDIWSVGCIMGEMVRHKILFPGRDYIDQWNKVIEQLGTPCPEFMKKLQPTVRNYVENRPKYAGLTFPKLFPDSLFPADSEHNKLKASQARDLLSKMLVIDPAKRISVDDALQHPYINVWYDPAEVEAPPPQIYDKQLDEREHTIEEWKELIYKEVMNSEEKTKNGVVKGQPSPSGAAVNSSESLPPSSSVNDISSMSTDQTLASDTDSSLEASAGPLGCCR
A digest of the protocol:
as §1

The target of the next assay is T14, MKNK2 (Homo sapiens, UniProt Q9HBH9).
T14 construct: host or cells: T7 phage in E. coli host derived from BL21
The method in brief:
as §1

The next assay addresses T15, MLK1 (Homo sapiens, UniProt P80192).
T15 construct: host or cells: T7 phage in E. coli host derived from BL21
A digest of the protocol: as §1

The next assay concerns the target T16, PDGFRB (Homo sapiens, UniProt P09619).
T16 construct: host or cells: E. coli host derived from the BL21 strain, infected with T7 phage
A digest of the protocol: as §1

The target of another assay is T17, PKN2 (Homo sapiens, UniProt Q16513).
T17 construct: purchased Ambit Biosciences Corp (KinomeScan); host or cells: E. coli host derived from BL21, infected with T7 phage
A digest of the protocol: as §1

For a further assay, the target named is T18, RIOK1 (Homo sapiens, UniProt Q9BRS2).
T18 construct: host or cells: E. coli host derived from BL21, T7 phage lysate
T18 sequence (Q9BRS2 whole entry): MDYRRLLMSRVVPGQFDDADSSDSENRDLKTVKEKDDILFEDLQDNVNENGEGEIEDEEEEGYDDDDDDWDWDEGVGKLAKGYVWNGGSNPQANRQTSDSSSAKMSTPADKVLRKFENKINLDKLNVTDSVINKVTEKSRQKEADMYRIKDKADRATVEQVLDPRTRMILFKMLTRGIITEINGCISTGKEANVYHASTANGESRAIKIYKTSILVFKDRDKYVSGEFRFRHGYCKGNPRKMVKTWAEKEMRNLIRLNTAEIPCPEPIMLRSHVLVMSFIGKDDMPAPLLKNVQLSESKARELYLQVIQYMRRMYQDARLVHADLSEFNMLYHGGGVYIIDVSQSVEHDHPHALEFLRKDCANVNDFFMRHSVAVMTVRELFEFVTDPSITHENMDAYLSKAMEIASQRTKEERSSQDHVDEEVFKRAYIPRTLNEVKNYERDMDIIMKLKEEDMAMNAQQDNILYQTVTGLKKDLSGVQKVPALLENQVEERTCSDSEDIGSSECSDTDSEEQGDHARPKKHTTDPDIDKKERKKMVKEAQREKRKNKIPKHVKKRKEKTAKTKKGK
A digest of the protocol: as §1

Another assay deals with T19, RIPK1 (Homo sapiens, UniProt Q13546).
T19 construct: host or cells: E. coli host derived from BL21, T7 phage lysate
T19 sequence (Q13546 whole entry): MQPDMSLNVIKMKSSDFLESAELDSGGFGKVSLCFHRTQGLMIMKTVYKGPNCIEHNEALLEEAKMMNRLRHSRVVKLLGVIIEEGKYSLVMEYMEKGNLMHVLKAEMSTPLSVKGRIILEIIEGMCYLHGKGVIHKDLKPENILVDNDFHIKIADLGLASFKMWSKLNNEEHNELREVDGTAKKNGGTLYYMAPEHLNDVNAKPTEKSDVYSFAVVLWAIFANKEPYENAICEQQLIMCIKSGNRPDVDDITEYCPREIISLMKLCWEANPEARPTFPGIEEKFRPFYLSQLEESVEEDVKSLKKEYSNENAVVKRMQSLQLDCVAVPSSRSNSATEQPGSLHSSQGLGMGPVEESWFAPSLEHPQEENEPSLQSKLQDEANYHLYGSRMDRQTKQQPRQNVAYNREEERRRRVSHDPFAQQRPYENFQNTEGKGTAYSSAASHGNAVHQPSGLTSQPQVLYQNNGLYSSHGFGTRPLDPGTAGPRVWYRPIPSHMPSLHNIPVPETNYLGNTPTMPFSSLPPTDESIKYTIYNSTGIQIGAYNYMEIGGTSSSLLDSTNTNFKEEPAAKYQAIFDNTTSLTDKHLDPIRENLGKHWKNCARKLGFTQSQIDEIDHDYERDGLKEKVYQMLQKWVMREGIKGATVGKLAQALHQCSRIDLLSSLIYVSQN
The method in brief: as §1

For another assay, the target named is T20, TAK1 (Homo sapiens, UniProt O43318).
T20 construct: host or cells: E. coli host derived from the BL21 strain, T7 phage lysate
The method in brief: as §1

For a further assay, the target named is T21, TEC (Homo sapiens, UniProt P42680).
T21 construct: host or cells: E. coli host derived from the BL21 strain, T7 phage lysate
A digest of the protocol: as §1

A further assay deals with T22, TESK1 (Homo sapiens, UniProt Q15569).
T22 construct: host or cells: E. coli host derived from the BL21 strain, T7 phage lysate
The method in brief: as §1

A further assay deals with T23, TSSK1B (Homo sapiens, UniProt Q9BXA7).
T23 construct: purchased Ambit Biosciences Corp (KinomeScan); host or cells: E. coli host derived from the BL21 strain (T7 phage lysate)
The method in brief: as §1

T16 sequence (P09619 33-1106): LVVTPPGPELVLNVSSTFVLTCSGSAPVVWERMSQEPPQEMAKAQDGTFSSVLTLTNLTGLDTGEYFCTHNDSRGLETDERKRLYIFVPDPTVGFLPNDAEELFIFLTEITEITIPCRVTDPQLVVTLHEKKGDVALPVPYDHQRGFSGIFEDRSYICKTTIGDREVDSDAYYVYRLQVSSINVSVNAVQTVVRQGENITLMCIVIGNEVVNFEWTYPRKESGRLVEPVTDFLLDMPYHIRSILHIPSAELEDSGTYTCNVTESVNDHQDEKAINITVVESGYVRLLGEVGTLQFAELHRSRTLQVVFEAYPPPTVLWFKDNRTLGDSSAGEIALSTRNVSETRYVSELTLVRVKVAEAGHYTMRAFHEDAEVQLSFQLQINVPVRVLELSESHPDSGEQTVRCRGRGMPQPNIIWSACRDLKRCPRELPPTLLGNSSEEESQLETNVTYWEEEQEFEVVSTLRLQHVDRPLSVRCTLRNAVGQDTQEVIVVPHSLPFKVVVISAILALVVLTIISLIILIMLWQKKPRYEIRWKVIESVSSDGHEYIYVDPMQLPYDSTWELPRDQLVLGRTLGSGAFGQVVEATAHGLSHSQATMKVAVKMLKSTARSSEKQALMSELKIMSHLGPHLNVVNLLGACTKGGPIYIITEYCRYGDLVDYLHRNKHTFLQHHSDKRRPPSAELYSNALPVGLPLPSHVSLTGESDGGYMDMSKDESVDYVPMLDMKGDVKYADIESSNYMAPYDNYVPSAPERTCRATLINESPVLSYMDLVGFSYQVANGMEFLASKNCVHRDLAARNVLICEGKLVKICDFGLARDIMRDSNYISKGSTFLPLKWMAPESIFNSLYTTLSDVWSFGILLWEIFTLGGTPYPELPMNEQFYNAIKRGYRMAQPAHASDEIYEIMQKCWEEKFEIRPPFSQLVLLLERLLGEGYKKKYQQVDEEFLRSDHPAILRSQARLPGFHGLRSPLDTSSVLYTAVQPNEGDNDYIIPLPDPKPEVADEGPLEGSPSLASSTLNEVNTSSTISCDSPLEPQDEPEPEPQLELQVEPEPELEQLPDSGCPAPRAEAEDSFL
T7 sequence (P49761 whole entry): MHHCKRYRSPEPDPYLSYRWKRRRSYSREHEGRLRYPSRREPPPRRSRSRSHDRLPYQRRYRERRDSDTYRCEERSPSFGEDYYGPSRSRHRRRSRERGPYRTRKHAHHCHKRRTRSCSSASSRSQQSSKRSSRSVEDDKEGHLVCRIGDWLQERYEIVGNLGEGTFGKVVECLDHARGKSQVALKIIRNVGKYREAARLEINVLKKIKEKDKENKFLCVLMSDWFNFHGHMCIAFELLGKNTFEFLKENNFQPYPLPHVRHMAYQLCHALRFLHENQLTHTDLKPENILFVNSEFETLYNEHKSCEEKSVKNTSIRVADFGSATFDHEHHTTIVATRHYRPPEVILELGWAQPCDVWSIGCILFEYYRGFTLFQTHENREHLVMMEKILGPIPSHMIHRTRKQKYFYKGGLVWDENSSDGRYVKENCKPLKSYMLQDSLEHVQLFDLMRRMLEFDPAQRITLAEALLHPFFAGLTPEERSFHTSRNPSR

On to `C#Cc1cccc(Nc2ncnc3cc(OC)c(OCCCN4CCOCC4)cc23)c1` [NRC-2694, N-(3-ethylnylphenyl)-7-methoxy-6-[3-(4-morpholinyl)propoxy]-4-quinazolinamine], for which the “% Ctrl @ 10000 nM” value is 10 % Ctrl at ALK; 56 % Ctrl at AURKB; 100 % Ctrl at BMPR2; 83 % Ctrl at CAMK1D; 71 % Ctrl at CAMKK1; 37 % Ctrl at CDC2L2. Besides, the “% Ctrl @ 10000 nM” value on CLK3 came to 45 % Ctrl; at CSF1R, 50 % Ctrl; at CSNK1E, 9.6 % Ctrl; at EGFR (S752-1759del), 0 % Ctrl; on ERBB4 it was 3.3 % Ctrl; in [1], 38 % Ctrl. In addition, the “% Ctrl @ 10000 nM” value at JNK3 came to 77 % Ctrl; on MKNK2, 16 % Ctrl; on MLK1, 100 % Ctrl; at PDGFRB, 10 % Ctrl; at PKN2 it was 31 % Ctrl; on RIOK1, 36 % Ctrl. Besides, the “% Ctrl @ 10000 nM” value at RIPK1 was 100 % Ctrl; on TAK1, 66 % Ctrl; on TEC it was 90 % Ctrl; at TESK1 it was 83 % Ctrl; at TSSK1B it was 93 % Ctrl.

Source of the values: patent publication US9050341B2, “Methods of treating drug resistant and other tumors by administering 6,7-dialkoxy quinazoline derivatives” (NATCO PHARMA LIMITED, priority 2009, dated 2015).
